Experimental findings from patent US20180050993A1, “NOVEL FLUORINATED DERIVATIVES AS EGFR INHIBITORS USEFUL FOR TREATING CANCERS” (Trillium Therapeutics Inc., priority 2015, published 2018) are described below.

Counter-ions that a name gives are not always drawn. Like-named read-outs stand apart in the source and are kept apart here.

The target in one data set is T1, EGFR (L858R) (Homo sapiens, UniProt P00533, L858R).
T1 construct: purchased Reaction Biology
Briefly: Kinase HotSpot profiling (Reaction Biology), 33P-ATP filter-binding. Type of data set: biochemical. The conditions noted are these: mutant EGFR L858R. The procedure: (§1) Base Reaction buffer; 20 mM Hepes (pH 7.5), 10 mM MgCl2, 1 mM EGTA, 0.02% Brij35, 0.02 mg/ml BSA, 0.1 mM Na3VO4, 2 mM DTT, 1% DMSO
(§2) *Required cofactors are added individually to each kinase reaction
(§3) 1. The indicated substrate was prepared in fresh Base Reaction Buffer.
(§4) 2. Any required cofactors were added to the substrate solution above.
(§5) 3. Indicated kinase was added into the substrate solution and gently mixed.
(§6) 4. Compounds in DMSO were added into the kinase reaction mixture by Acoustic technology (Echo550; nanoliter range) and incubated for 20 minutes at room temperature.
(§7) 5. 33P-ATP (specific activity 10 μCi/μl) was added into the reaction mixture to initiate the reaction.
(§8) 6. The kinase reaction was incubated for 2 hours at room temperature
(§9) 7. Reactions were spotted onto P81 ion exchange paper.
(§10) 8. Kinase activity was detected by filter-binding method.
(§11) Representative compounds of Formula I were evaluated against WT EGFR and mutant EGFR (L858R and L858R, T790M) kinases. IC50 concentrations are illustrated in Table 9.

The next data set addresses T2, EGFR (L858R, T790M) (Homo sapiens, UniProt P00533, L858R/T790M).
T2 construct: purchased Reaction Biology
The data set is described as above. Type of data set: biochemical. The following applies: mutant EGFR L858R. The procedure: as §1, §2, §3, §4, §5, §6, §7, §8, §9, §10, §11

The target of the next data set is T3, EGFR (Homo sapiens, UniProt P00533).
T3 construct: purchased Reaction Biology
The data set is described as above. Type of data set: biochemical. The conditions noted are these: WT EGFR. The method, then: as §1, §2, §3, §4, §5, §6, §7, §8, §9, §10, §11

A short description of data set [1]: Brain concentrations after PO administration in rat, peak at 8 hours (Table 5). Type of data set: in vivo. The conditions noted are these: Table 5 (8 hours); for Kp at 8 h: brain/plasma, po, 50 mg/kg.
Data set [2] in a line: Human liver microsomal stability. Type of data set: in vitro ADME. The following applies: stability in pooled human (50 donors) liver microsomes 0.5 mg/ml, compound 1 μM, parent compound by LC/MS. The procedure: (§12) Working stocks were initially diluted to a concentration of 40.0 μM in 0.1 M potassium phosphate buffer before addition to the reaction vials. Pooled mouse (CD-1, male) or human (50 donors) liver microsomes were utilized at a final concentration of 0.5 mg/ml. Duplicate wells were used for each time point (0 and 30 minutes). Reactions were carried out at 37° C. in a shaker, and the final concentration of DMSO was kept constant at 0.01%. The final volume for each reaction was 100 μL, which includes the addition of an NADPH-Regeneration solution (NRS) mix. This NRS mix is comprised of glucose 6-phosphate dehydrogenase (0.4 U/mL), NADP+ (1.3 mM), MgCl2 (3.3 mM), and glucose 6-phosphate (3.3 mM) in assay mixtures. Upon completion of the 30 minute time point, reactions were terminated by the addition of 1.5-volumes (150 μL) of ice-cold, acetonitrile with 0.5% formic acid and internal standard. Samples were then centrifuged at 4,000 rpm for 10 minutes to remove debris and precipitated protein. Approximately 150 μL of supernatant was subsequently transferred to a new 96 well microplate for LC/MS analysis.
(§13) Narrow-window mass extraction LC/MS analysis was performed for all samples using a Waters Xevo quadrupole time-of-flight (QTof) mass spectrometer and an ACQUITY UPLC system, to determine relative peak areas of parent compound.
(§14) Human and mouse liver microsomes contain a wide variety of drug metabolizing enzymes and are commonly used to support in vitro ADME (absorption, distribution, metabolism and excretion) studies. These microsomes are used to examine the potential first-pass metabolism by-products of orally administered drugs. Representative compounds of the application were evaluated for their stability in human and mouse liver microsomes.

A further data set concerns HCC827. As to the kind of experiment: Comparison with 1st generation inhibitors against a lung cancer cell line (HCC827). Type of data set: cell-based. The conditions noted are these: Homo sapiens, read-out: Biochemical IC50.
A further data set concerns the target T4, P-gp (Homo sapiens, UniProt P08183).
T4 construct: host or cells: Caco-2 (C2BBe1)
As to the kind of experiment: Evaluation of P-gp efflux in Caco-2 cell monolayers.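 Also: Caco-2 monolayers dosed apically or basolaterally with test compound at 5 µM in HBSS with HEPES and glucose, 37 °C, donor and receiver sampled after 120 min, LC/MS peak areas.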 Type of data set: in vitro ADME.

A short description of data set [3]: Mouse liver microsomal stability. The following applies: stability in pooled mouse (CD-1, male) liver microsomes 0.5 mg/ml, compound 1 μM, parent compound by LC/MS, in % (unit assumed). Type of data set: in vitro ADME. The procedure:
as §12, §13, §14

The target of data set [4] is T5, EPHA6 (Homo sapiens, UniProt Q9UF33).
T5 sequence (Q9UF33 23-1036): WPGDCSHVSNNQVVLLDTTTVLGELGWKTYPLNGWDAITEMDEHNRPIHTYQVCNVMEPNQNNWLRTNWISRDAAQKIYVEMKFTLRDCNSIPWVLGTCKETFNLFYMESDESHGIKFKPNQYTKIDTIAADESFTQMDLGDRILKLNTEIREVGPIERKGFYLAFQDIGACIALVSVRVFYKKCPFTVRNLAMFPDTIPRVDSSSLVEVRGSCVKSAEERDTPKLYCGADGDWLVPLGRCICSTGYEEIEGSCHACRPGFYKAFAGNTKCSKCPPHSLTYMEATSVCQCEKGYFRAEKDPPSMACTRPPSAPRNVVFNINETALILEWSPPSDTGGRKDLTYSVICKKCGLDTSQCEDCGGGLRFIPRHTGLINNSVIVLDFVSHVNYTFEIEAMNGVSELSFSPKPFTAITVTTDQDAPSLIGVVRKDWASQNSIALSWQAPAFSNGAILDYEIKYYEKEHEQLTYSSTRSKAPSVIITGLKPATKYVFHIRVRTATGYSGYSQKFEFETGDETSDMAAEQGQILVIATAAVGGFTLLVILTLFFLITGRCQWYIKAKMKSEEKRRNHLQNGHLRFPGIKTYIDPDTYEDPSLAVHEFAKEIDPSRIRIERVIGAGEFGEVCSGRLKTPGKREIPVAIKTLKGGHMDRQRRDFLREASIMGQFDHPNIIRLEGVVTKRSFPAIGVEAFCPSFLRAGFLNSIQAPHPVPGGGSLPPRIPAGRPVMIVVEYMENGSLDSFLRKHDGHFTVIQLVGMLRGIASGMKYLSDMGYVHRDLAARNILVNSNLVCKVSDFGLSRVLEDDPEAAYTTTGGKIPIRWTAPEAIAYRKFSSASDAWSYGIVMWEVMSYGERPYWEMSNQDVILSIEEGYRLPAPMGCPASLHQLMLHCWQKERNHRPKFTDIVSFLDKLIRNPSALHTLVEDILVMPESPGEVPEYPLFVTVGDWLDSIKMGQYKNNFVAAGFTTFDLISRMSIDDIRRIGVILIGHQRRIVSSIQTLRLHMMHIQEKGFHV
As to the kind of experiment: Binding constants (Kd) for EPHA6, kinase competition binding with qPCR readout.

Data set [5] deals with T5, EPHA6. As to the kind of experiment: Kinome screen at 300 nM (qPCR competition binding). The arrangement: purchased DiscoveRx; host or cells: E. coli BL21-derived (T7 phage) or HEK-293. The conditions noted are these: result in words. On the technique in general: In qPCR the cycle at which signal appears reflects the starting amount.
Data set [6] in a line: Brain and plasma concentrations after oral gavage in rat, sampling to 4 hours (Table 4). Type of data set: in vivo. The following applies: Table 4 (4 hours); for AUClast / Cmax / Tmax: brain tissue, PO 50 mg/kg; for Cmax / Tmax / Kp at 4 h: male, Sprague-Dawley (SD); for Kp at 4 h: brain/plasma, po, 50 mg/kg.
The test system of another data set is EGFR(L747-T751del, Sins). As to the kind of experiment: Kinome screen at 300 nM (qPCR competition binding).
[7] abbreviates: Sprague-Dawley, brain, PO 50 mg/kg.

T4 sequence (P08183 whole entry): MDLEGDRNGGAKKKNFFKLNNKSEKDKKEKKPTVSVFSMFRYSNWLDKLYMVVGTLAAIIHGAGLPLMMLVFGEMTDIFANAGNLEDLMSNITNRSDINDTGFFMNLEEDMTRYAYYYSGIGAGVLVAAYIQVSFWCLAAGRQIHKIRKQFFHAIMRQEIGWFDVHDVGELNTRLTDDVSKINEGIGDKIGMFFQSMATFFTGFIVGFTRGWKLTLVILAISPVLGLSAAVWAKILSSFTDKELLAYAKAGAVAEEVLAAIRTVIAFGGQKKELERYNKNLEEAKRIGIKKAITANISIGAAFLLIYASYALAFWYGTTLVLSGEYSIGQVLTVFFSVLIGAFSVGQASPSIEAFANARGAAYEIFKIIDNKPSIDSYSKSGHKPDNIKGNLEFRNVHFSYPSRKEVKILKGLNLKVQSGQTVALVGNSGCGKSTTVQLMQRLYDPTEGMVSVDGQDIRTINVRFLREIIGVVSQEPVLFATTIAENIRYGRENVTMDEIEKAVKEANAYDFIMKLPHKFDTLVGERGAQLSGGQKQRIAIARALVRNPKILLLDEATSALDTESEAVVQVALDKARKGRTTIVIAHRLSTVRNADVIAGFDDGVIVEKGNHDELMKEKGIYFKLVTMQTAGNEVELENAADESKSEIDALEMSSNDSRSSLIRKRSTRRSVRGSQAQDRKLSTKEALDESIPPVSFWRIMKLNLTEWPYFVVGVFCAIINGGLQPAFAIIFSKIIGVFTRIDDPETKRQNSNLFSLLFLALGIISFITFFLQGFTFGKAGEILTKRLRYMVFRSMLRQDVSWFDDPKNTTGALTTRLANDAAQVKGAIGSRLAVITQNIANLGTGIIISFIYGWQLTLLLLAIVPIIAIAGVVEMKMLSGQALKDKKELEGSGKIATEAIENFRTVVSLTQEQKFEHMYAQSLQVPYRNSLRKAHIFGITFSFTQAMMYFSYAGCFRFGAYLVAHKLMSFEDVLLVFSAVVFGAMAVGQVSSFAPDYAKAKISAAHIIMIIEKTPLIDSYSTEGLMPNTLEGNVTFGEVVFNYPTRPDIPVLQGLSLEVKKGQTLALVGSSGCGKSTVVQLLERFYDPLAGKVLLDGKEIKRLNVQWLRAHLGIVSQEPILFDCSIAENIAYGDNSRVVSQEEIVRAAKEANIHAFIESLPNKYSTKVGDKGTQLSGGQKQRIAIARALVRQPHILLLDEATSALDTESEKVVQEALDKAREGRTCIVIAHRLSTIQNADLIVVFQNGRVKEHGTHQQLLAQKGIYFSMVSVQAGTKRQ
T2 sequence (P00533 25-1210 T790M/L858R): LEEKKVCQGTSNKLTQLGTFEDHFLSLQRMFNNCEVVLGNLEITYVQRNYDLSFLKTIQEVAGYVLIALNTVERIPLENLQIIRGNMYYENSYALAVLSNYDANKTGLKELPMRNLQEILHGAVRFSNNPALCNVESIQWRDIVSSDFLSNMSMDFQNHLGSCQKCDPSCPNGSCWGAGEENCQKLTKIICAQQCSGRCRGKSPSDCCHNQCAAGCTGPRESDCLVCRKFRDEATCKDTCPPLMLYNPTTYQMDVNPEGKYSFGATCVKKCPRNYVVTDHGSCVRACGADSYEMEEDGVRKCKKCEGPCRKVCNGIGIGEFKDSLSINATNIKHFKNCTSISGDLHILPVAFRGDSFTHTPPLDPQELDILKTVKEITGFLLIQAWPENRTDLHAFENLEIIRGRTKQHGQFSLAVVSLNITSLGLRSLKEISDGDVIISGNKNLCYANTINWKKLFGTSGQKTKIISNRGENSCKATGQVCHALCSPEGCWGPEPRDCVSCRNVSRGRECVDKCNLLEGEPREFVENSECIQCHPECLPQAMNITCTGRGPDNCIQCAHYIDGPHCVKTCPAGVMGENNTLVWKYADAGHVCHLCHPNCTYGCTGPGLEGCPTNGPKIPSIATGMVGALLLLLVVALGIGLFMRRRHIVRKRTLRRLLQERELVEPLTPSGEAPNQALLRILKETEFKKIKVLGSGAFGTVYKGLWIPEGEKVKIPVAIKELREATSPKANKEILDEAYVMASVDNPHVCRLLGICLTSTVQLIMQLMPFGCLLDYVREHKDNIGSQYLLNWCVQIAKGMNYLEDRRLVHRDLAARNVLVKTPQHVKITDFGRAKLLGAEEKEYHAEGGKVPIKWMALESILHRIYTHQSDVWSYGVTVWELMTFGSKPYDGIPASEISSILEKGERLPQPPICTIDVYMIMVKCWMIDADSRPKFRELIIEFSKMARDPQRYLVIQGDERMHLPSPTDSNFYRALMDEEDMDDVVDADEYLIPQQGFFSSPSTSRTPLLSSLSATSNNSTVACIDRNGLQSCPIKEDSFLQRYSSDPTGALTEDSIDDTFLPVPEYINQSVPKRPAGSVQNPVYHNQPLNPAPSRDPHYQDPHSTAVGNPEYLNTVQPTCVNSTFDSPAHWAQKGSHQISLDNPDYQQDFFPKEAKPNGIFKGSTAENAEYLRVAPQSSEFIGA
T1 sequence (P00533 25-1210 L858R): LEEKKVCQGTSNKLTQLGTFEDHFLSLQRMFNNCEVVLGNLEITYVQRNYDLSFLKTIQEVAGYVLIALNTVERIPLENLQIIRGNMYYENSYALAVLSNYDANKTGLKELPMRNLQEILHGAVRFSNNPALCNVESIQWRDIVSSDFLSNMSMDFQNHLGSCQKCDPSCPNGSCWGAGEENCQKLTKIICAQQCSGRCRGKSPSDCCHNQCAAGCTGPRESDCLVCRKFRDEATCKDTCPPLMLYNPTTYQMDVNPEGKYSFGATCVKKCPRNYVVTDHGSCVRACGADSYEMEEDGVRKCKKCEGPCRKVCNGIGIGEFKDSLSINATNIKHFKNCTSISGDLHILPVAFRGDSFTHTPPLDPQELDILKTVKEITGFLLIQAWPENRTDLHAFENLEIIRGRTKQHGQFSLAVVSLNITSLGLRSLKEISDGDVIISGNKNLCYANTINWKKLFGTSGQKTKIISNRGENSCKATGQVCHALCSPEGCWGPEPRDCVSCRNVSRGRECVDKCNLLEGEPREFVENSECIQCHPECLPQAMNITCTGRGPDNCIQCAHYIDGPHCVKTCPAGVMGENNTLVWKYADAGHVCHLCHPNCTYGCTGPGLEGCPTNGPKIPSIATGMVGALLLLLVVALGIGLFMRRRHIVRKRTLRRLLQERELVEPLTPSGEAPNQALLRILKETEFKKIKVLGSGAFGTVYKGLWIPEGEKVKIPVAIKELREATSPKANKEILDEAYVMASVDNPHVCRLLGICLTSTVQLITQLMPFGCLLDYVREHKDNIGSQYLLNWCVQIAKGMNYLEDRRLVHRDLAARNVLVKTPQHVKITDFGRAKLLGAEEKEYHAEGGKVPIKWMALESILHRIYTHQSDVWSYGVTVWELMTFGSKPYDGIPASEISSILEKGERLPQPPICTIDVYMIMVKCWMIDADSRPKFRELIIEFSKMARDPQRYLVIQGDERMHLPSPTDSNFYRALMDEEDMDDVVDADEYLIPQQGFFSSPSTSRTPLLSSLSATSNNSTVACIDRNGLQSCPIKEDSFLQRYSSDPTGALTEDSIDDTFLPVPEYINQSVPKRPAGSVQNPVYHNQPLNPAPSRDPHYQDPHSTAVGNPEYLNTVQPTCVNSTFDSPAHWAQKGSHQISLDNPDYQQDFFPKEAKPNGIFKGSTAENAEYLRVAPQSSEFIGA
T3 sequence (P00533 25-1210): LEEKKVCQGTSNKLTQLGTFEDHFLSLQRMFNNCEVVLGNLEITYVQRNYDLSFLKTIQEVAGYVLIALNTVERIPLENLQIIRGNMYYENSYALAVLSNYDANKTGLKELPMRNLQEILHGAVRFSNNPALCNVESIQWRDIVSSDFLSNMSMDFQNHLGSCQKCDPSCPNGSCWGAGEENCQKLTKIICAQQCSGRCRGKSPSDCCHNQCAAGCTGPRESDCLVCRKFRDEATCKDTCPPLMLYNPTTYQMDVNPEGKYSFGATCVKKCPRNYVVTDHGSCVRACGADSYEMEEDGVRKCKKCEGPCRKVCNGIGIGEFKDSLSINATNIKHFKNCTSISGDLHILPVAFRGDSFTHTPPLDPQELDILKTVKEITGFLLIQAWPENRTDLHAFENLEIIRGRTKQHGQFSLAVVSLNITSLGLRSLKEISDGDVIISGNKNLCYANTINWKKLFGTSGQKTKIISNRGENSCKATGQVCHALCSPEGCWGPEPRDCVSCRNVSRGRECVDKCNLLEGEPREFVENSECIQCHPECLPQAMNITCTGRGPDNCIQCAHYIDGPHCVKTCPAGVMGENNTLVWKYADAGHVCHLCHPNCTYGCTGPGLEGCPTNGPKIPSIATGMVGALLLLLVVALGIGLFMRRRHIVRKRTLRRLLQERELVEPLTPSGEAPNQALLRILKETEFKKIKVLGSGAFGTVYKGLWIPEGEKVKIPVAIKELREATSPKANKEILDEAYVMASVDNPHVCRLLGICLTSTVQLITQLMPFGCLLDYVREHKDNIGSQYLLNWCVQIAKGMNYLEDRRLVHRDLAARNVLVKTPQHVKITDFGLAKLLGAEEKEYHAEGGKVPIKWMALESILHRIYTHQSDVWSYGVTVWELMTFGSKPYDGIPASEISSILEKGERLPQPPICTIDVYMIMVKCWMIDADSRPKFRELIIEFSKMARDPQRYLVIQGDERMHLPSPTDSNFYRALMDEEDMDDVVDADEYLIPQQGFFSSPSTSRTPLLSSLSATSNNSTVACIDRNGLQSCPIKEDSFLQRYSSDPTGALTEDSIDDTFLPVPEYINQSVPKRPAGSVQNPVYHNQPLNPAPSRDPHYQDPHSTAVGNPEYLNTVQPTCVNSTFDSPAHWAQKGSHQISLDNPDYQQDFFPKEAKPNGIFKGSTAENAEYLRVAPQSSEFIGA

For the compound `COc1cc2ncnc(Nc3ccc(F)c(Cl)c3F)c2cc1OC(=O)N1CC[C@@H](COC(F)F)C1` [2(Qq), [4-(3-chloro-2,4-difluoro-anilino)-7-methoxy-quinazolin-6-yl] (3R)-3-(difluoromethoxymethyl)pyrrolidine-1-carboxylate], the IC50 on EGFR (L858R) worked out at 0.0164 nM; on EGFR (L858R, T790M) it was 6820 nM; at EGFR, 0.0138 nM.

On to `COc1cc2ncnc(Nc3ccc(F)c(Cl)c3F)c2cc1OCCCN1CCC(OC(F)F)CC1` [2(q), N-(3-chloro-2,4-difluoro-phenyl)-6-[3-[4-(difluoromethoxy)-1-piperidyl]propoxy]-7-methoxy-quinazolin-4-amine], for which the IC50 at EGFR (L858R) amounted to 0.0142 nM; at EGFR (L858R, T790M), 4010 nM; at EGFR it was 0.0434 nM.

For `Fc1c(Nc2ncnc3cc(OCCOC(F)F)c(OCCOC(F)F)cc23)ccc(Cl)c1Cl` [Compound 2A•HCl, N-(3,4-dichloro-2-fluoro-phenyl)-6,7-bis[2 (difluoromethoxy)ethoxy]quinazolin-4-amine], the Cmax worked out at 5610 ng/g in data set [1] (setting [7]) and 6980 ng/g in [6]. The time of peak concentration (Tmax) was 8 h in data set [1] (setting [7]) and 4 h in [6]. Also, the Kp at 8 h in [1] (Sprague-Dawley, read-out: AUCLast Ratio (Brain/Plasma)) stood at 1.5; in data set [1] (Sprague-Dawley, read-out: Cmax Ratio (Brain/Plasma)), 1.72. The AUCInf in data set [1] (brain, PO 50 mg/kg) was 102348 ng·h/g. Besides, the AUClast was 101853 ng·h/g in [1] (brain, PO 50 mg/kg) and 22593 ng·h/g in [6]. In addition, the HLM (30 min) in data set [2] (listed as 2(a)•HCl) is 97.4%. Also, the concentration for half-maximal inhibition (IC50) in the data set on HCC827 is 21 nM. Moreover, the recovery at 120 min, 5 μM turned out to be 43.4% at P-gp (Caco-2, pH 7.4, with none (verapamil 0 μM), Caco-2, Verapamil 0 μM, read-out: Recovery (%) AP-BL); 57.1% at P-gp (Caco-2, pH 7.4, with none (verapamil 0 μM), Caco-2, Verapamil 0 μM, read-out: Recovery (%) BL-AP); 55.5% on P-gp (Caco-2, pH 7.4, with verapamil 100 μM, Caco-2, Verapamil 100 μM, read-out: Recovery (%) AP-BL); 83.2% at P-gp (Caco-2, pH 7.4, with verapamil 100 μM, Caco-2, Verapamil 100 μM, read-out: Recovery (%) BL-AP). For the same compound, the apical-to-basolateral permeability (Papp A→B) at 120 min, 5 μM at P-gp (pH 7.4, Caco-2, Verapamil 0 μM) was found to be 0.58 ×10⁻⁶ cm/s. In addition, at P-gp (pH 7.4, Caco-2, Verapamil 0 μM), the Papp B→A at 120 min, 5 μM was found to be 0.35 ×10⁻⁶ cm/s. Also, the efflux ratio at 120 min, 5 µM on P-gp (pH 7.4, Caco-2, Verapamil 0 μM) turned out to be 0.59. Moreover, in data set [3] (listed as 2(a)•HCl), the “MLM (30 min)” value was 91.7. Besides, at EPHA6 [4], the Kd stood at 9.1 nM. Also, the “selectivity over erlotinib for the ephrin receptor kinase, EPHA6” value on EPHA6 [5] is “did show selectivity over erlotinib”. For the same compound, the Kp at 4 h in [6] (read-out: AUCLast Ratio (Brain/Plasma)) was 1.69; in [6] (read-out: Cmax Ratio (Brain/Plasma)), 1.81.

For the compound `C#Cc1cccc(Nc2ncnc3cc(OCCOC)c(OCCOC)cc23)c1` [Erlotinib, N-(3-ethynylphenyl)-6,7-bis(2-methoxyethoxy)quinazolin-4-amine, reference compound], the “% Control @ 300 nM” value with EGFR(L747-T751del, Sins) is on record as 0.12%. The HLM (30 min) in data set [2] was found to be 75.5%. For the same compound, in data set [3], the “MLM (30 min)” value stood at 56.3. Moreover, in data set [6], the AUClast is 4319 ng·h/g, the Cmax was found to be 1710 ng/g and the Tmax came to 4 h.

Broadly, the IC50 is the point on the concentration scale where inhibition reaches its midpoint. By Cmax is commonly meant the peak of the concentration-time curve. What is called Tmax is the time at which the peak concentration occurs. One may read the Papp A→B as how fast a substance crosses the layer from the apical side. What is called Papp B→A is how fast a substance crosses the layer from the basolateral side. A word on the efflux ratio: it is a quotient of directional permeabilities that is used to spot active efflux. Usually Kd stands for a measure of binding affinity in units of concentration.
